PMC3034713, “Targeting Vascular NADPH Oxidase 1 Blocks Tumor Angiogenesis through a PPARα Mediated Mechanism” (PLoS ONE, 2011)

Key:
xanthine oxidase = xanthine oxidase (Homo sapiens, UniProt P47989); assay: Xanthine oxidase inhibition, concentration-response; format: biochemical
NOX4 = target: T1, NOX4 (Homo sapiens, UniProt Q9NPH5); assay: NOX inhibition in cell free assay, membranes from cells overexpressing NOX4 (Amplex Red ROS); format: biochemical; conditions: cell-free, membranes from NOX4 over-expressing cells
T1 construct: expressed in transfected cells
T1 sequence (Q9NPH5 whole entry, species assumed, one chain of several): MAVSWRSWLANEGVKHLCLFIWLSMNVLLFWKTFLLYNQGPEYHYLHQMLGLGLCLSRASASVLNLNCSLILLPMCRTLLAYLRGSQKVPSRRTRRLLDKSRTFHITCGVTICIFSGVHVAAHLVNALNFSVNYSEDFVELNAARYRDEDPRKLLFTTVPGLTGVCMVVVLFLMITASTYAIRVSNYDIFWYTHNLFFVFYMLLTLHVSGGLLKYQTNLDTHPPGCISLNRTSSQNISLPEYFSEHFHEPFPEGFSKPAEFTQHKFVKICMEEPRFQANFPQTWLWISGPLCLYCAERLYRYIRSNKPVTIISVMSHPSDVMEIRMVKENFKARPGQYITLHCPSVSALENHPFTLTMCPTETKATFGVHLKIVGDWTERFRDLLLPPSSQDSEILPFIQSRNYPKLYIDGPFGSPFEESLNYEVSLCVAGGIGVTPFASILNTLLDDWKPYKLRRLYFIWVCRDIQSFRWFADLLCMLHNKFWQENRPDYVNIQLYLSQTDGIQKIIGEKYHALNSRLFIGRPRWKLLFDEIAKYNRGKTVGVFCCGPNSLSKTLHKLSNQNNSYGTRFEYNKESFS
Description: (§1) Membranes from NOX2 expressing PMN cells or from cells overexpressing NOX1 or NOX4 were prepared as previously described. After resuspension in sonication buffer (11% sucrose, 120 mM NaCl, 1 mM EGTA in PBS, pH 7.4 for NOX4-expressing cells) or in relax buffer (10 mM Pipes, 3 mM NaCl, 3.5 mM MgCl2, 0.1 M KCl, pH 7.4), cells were broken by sonication and centrifuged (200 g, 10 min). The supernatant was loaded onto a 17/40% (w/v) discontinuous sucrose gradient and centrifuged (150,000 g for 30 min). Membrane fractions were collected and stored at −80°C. ROS production measurements of membranes expressing different NOX subunits was determined as previously described using the Amplex Red method (Invitrogen).

NOX2 = target: T2, NOX2 (Homo sapiens, UniProt P04839); assay: NOX inhibition in cell free assay, membranes from NOX2 expressing PMN cells (Amplex Red ROS); format: biochemical; conditions: cell-free, membranes from NOX2 expressing PMN cells
T2 construct: Membranes from NOX2 expressing PMN cells; endogenous in cells; host or cells: PMN cells
T2 sequence (P04839 2-570 limits assumed): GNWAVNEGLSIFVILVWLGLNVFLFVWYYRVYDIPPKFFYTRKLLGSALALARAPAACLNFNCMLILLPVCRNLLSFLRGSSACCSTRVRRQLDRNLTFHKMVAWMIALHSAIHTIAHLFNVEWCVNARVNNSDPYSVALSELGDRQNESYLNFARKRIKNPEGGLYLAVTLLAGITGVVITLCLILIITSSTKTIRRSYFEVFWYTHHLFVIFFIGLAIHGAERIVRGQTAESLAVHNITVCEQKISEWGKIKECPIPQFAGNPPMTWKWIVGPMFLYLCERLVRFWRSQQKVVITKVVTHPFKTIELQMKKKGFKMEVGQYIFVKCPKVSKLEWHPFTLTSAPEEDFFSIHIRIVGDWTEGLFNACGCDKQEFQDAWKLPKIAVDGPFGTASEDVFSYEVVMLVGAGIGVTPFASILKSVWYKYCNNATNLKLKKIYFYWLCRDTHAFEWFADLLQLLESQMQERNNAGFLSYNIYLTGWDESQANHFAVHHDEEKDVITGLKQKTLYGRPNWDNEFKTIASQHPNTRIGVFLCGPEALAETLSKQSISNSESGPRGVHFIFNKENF
T2 sequence (P13498 2-195 partner limits assumed): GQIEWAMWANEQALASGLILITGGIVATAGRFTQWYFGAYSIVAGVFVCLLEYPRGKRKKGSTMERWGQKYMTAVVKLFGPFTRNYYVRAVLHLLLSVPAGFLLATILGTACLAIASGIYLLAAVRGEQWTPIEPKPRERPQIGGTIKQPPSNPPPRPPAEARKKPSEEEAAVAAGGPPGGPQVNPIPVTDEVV
Description: as §1

NOX1 = target: T3, NOX1 (Homo sapiens, UniProt Q9Y5S8); assay: NOX inhibition in cell free assay, membranes from cells overexpressing NOX1 (Amplex Red ROS); format: biochemical; conditions: cell-free, membranes from NOX1 over-expressing cells
T3 construct: expressed in transfected cells
T3 sequence (Q9Y5S8 1-564): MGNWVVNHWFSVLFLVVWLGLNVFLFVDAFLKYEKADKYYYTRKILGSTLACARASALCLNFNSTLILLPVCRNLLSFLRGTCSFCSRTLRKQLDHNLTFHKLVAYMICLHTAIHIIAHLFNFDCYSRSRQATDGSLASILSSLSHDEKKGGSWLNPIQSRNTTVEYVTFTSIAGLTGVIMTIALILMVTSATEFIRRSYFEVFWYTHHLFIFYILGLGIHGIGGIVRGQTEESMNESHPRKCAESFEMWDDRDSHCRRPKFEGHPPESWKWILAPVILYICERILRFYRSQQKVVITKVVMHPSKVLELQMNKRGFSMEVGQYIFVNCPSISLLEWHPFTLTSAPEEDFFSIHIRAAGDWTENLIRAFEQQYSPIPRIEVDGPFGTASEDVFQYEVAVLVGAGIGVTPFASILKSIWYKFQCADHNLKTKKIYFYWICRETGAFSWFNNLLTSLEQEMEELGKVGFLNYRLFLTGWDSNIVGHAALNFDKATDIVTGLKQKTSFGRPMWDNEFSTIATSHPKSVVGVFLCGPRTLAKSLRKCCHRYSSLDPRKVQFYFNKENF
T3 sequence (P13498 2-195 partner limits assumed): T2 sequence (P13498 2-195 partner limits assumed)
Description: as §1

[1] = tested on: NOX1-silenced endothelial cell lines; assay: p65 NF-κB nuclear translocation after VEGF or bFGF stimulation (Western blot, immunofluorescence); format: cell-based, mouse; conditions: 10 µM before stimulation with VEGF and bFGF
Description: After stimulation, nuclear and cytoplasmic proteins of endothelial cells were extracted according to Tauzin et al.. Briefly, cells were incubated in TKM buffer (50 mM Tris-HCl pH 7.4, 25 mM KCl, 5 mM MgCl2 and 1 mM EGTA) containing 1% Triton and protease inhibitor cocktail CLAP [10 µg/ml chymostatin, leupeptin, antipain and pepstatin A (Sigma) for 30 minutes on ice, sonicated for 2 minutes and centrifuged at 5000 g for 30 minutes. The pellet and the supernatant were separated and solubilized in sample buffer.
Cells were stimulated for the indicated time and then lysed in TNT buffer (50 mM Tris, 150 mM NaCl, 0.5% Triton X-100) complemented with protease inhibitor cocktail CLAP and phosphatase inhibitor cocktail [25 mM NaF, 20 mM b-Glycerophosphate, 5 mM HEPES, 2.5 mM EDTA, 0.5 mM Orthovanadate]. Membranes were blocked in PBS containing 0.5% BSA and hybridized with different antibodies.

MLEC [2] = assay: Wound healing assay (endothelial cell migration); format: cell-based, mouse; conditions: NOX1-deficient MLEC, 10 µM, compared to untreated NOX1-deficient cells
Description: Wound healing assay was performed as described previously. Briefly, endothelial cells were plated in Matrigel (Becton Dickinson) precoated 96 wells plates. One day after plating the cell monolayer was scratched to make a regular wound. Cells were allowed to migrate overnight. Migration area was then measured and calculated using the Metamorph program (MDS Analytical Technologies).

MLEC [3] = assay: Endothelial cell sprouting assay (tube-like structure formation, 3D culture); format: cell-based, mouse; conditions: NOX1-deficient MLEC, 10 µM, compared to untreated NOX1-deficient cells
Description: Sprouting assay was performed as described previously. Briefly, endothelial cells were plated in 96 well plates at 8,000 cells per well in a 3D fibrin gel. Above the gel, 10% FCS containing DMEM was complemented with 200 KIU/ml of Aprotinin (Sigma). Length of branches was evaluated using the Metamorph program. Results are expressed in mm of skeleton length/number of cells.

tEnd siRNA NOX1 = assay: Quantitative real-time PCR of target genes in NOX1-silenced endothelial cell line; format: cell-based, mouse
Description: Total RNA from treated cells was extracted using RNeasy minikit (Qiagen). Total RNA was reverse-transcribed with the Superscript III first strand RT-PCR kit (Invitrogen). Quantitative real-time PCR was performed using SybrGreen master mix (Applied Biosystems) on Step one plus Real-time PCR machine (Applied Biosystems). Primer sequences are listed in the Materials and Methods S1.
For mouse cells, siRNAs were nucleofected using the Amaxa technology (Lonza). Gene silencing was assessed 48 hours after nucleofection by quantitative RT-PCR. For HUVEC, shRNA vectors (SABiosciences) were nucleofected using Amaxa. Gene silencing was assessed 48 hours after nucleofection by quantitative RT-PCR.

[4] = tEnd siRNA NOX1 + GW 6471, compared to control cells

Sequence of xanthine oxidase (P47989 whole entry, species assumed): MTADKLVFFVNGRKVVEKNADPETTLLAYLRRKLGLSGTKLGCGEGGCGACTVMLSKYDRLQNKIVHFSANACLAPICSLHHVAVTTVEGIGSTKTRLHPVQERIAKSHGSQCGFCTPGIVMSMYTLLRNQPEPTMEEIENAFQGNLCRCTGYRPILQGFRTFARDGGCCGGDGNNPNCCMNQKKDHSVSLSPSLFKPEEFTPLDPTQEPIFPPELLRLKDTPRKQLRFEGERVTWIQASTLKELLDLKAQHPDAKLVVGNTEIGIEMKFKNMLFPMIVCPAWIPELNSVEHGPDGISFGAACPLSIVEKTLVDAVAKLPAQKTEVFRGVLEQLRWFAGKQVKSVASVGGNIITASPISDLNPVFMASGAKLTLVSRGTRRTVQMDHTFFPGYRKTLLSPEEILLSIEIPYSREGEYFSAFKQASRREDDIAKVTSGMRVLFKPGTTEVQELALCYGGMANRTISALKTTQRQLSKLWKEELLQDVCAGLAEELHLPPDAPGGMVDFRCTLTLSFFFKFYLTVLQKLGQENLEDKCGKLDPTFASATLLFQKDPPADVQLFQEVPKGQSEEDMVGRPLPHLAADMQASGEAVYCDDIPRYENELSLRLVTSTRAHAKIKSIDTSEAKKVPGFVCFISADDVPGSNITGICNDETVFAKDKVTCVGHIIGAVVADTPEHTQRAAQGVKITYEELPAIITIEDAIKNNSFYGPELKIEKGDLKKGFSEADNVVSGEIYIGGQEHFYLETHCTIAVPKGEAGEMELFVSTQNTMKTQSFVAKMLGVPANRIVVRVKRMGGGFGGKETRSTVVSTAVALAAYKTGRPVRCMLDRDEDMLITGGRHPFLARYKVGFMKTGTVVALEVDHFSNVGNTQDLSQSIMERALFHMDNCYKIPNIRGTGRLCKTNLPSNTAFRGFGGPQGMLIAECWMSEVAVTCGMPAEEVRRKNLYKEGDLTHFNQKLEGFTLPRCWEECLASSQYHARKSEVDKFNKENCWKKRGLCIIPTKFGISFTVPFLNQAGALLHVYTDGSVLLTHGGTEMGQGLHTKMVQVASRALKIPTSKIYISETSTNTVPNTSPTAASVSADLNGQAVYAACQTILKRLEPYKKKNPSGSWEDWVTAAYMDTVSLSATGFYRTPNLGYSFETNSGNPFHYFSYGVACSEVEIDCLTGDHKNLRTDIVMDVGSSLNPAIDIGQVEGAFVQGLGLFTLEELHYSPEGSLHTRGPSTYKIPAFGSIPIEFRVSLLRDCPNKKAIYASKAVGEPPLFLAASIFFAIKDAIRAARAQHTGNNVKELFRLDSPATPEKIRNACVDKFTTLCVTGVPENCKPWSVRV

Compound | Ki (xanthine oxidase) [nM] | Ki (NOX4) [nM] | Ki (NOX2) [nM] | Ki (NOX1) [nM] | deficient nuclear translocation of NF-kB in NOX1-silenced cells [1] | cell migration of NOX1-deficient MLEC (MLEC [2]) | tube formation of NOX1-deficient MLEC (MLEC [3]) | PPARα up regulation in NOX1-silenced cells (tEnd siRNA NOX1; NOX1-silenced cells incubated with antagonist, data not shown) | Catalase expression, fold increase or decrease (tEnd siRNA NOX1; [4]) [fold] | GPX3 expression, fold increase or decrease (tEnd siRNA NOX1; [4]) [fold] | MMP-2 expression, fold increase or decrease (tEnd siRNA NOX1; [4]) [fold] | MMP-9 expression, fold increase or decrease (tEnd siRNA NOX1; [4]) [fold] | VCAM-1 expression, fold increase or decrease (tEnd siRNA NOX1; [4]) [fold] | VE-cadherin expression, fold increase or decrease (tEnd siRNA NOX1; [4]) [fold] | VEGF expression, fold increase or decrease (tEnd siRNA NOX1; [4]) [fold] | bFGF expression, fold increase or decrease (tEnd siRNA NOX1; [4]) [fold] | uPAR expression, fold increase or decrease (tEnd siRNA NOX1; [4]) [fold]
c1ccc([I+]c2ccccc2)cc1 [DPI, Diphenyliodonium, reference compound] | 50 | 70 | 70 | 70 ± 10 |  |  |  |  |  |  |  |  |  |  |  |  | 
CCC(=O)NC[C@H](Cc1ccc(OCCc2nc(-c3ccccc3)oc2C)cc1)N/C(C)=C\C(=O)c1ccc(C(F)(F)F)cc1 [GW6471] |  |  |  |  | no longer observed | restored | restored | no longer observed | 0.92±0.012 | 0.70±0.01 | 2.13±0.24 | 0.47±0.07 | 0.57±0.18 | 0.9±0.2 | 0.68±0.04 | 0.64±0.25 | 1.34±0.6
